From patent US20210052529A1, “PHARMACEUTICAL COMPOSITIONS COMPRISING DICARBOXYLIC ACIDS AND THEIR THERAPEUTIC APPLICATIONS” (Cura Therapeutics, LLC, priority 2018, published 2021)
Several values for one entry are separate records, joined by “and”; a condition that tells them apart may be missing. Equal values may be shown once. Read-outs that look alike come from different tables or passages of the source. One block for each molecule: values may come before it.

Experiments:
[1] = assay type: in vitro ADME, human; details: for Mean Height / % Remaining: human, 1 μM; for % Remaining: plasma
Method: Compound B1 was spiked directly into an individual lot of fresh human plasma, with sodium heparin as the anticoagulant, such that the final assay concentration of the compound was 1.00 μM. After incubation at room temperature for 0, 0.5, 1, 2, and 4 hours, samples were removed and aliquoted for analysis. Valacyclovir was used as a positive control. The plasma samples containing a test compound were processed by protein precipitation.
A primary 0.500 mM stock solution of compound B1 was prepared in either acetonitrile or acetonitrile:water (1:1, v/v). A 0.200 mM working stock was made from the primary stock in acetonitrile:water (1:1, v/v), which was used in the human plasma stability study. The primary and working stock solutions were stored at −20° C. when not in use. When it was used in the assay, the working stock was kept at room temperature for as short a time as possible.
The human plasma stability study was initiated by adding 5.00 μL of compound B1 stock solution to 0.995 mL of human plasma (sodium heparin) in a 1.7-mL snap tube. Time zero points were generated by immediately removing duplicate 50.0 μL aliquots of plasma after initiating each incubation and quenching in 150 μL of methanol. The plasma incubation tubes were capped and remained at room temperature between time points.
After 0.5, 1, 2, and 4 hours of incubation, duplicate 50.0 μL aliquots of plasma were removed and placed into the extraction tubes containing 150 μL of methanol. Each time point was immediately extracted by vortex mixing, centrifuged and the supernate removed to HPLC vial for analysis. After extraction of all samples, the extracts were analyzed by LC/MS/MS.
LC/MS/MS analysis of the incubation solutions was conducted by initial separation of the test compound peak using chromatography prior to detection by the mass spectrometer. The LC/MS system was comprised of a HPLC coupled with a TQS-Micro or Quattro Premier. The mobile phase was nebulized using heated nitrogen in a Z-spray source/interface set to electrospray in either positive ionization mode or negative ionization mode. The ionized compounds were detected using MS/MS. The data was acquired using MassLynx.

[2] = Compound concentration in the CSF of rats; assay type: in vivo
Method: Compound B1 in the CSF of the rats was also analyzed. The results are shown in Table 4 below wherein BQL stands for below the quantifiable limit of 2.0 ng/mL.

[3] = Pharmacokinetic study in rats; assay type: in vivo
Method: A pharmacokinetic study on compound B1 was carried out in rats.

Metabolism in fresh human plasma [1]: not significantly metabolized | Mean Height ([1]; 0 h): 9,610 | Mean Height ([1]; 0.5 h): 9,430 | Mean Height ([1]; 1 h): 9,330 | Mean Height ([1]; 2 h): 9,610 | Mean Height ([1]; 4 h): 9,000 | % Remaining ([1]; 0 h): 100% | % Remaining ([1]; 0.5 h): 98.1% | % Remaining ([1]; 1 h): 97.1% | % Remaining ([1]; 2 h): 100% | % Remaining ([1]; 4 h): 93.7% | CSF Concentration ([2]; IV, 0.5 h, individual animals): 26 ng/mL and 17 ng/mL and 36 ng/mL | CSF Concentration ([2]; IV, 1.0 h, individual animals): 51 ng/mL and 391 ng/mL and 17 ng/mL | CSF Concentration ([2]; IV, 2.0 h, individual animals): 33 ng/mL and 27 ng/mL | CSF Concentration ([2]; IV, 4.0 h, individual animals): 10 ng/mL and 21 ng/mL and 4.5 ng/mL | CSF Concentration ([2]; IV, 8.0 h, individual animals): 1.8 ng/mL | concentration at 0.5 h ([2]; rat, CSF, iv, 0.5 h, mean): 27 ng/mL | concentration at 1 h ([2]; rat, CSF, iv, 1.0 h, mean): 153 ng/mL | concentration at 2 h ([2]; rat, CSF, iv, 2.0 h, individual animals, read-out: CSF Concentration): 17 ng/mL | concentration at 2 h ([2]; rat, CSF, iv, 2.0 h, mean, read-out: CSF Concentration, Mean): 26 ng/mL | concentration at 4 h ([2]; rat, CSF, iv, 4.0 h, mean): 12 ng/mL | concentration at 8 h ([2]; rat, CSF, iv, 8.0 h, individual animals, read-out: CSF Concentration): 1.2 ng/mL | concentration at 8 h ([2]; rat, CSF, iv, 8.0 h, mean, read-out: CSF Concentration, Mean): 1.5 ng/mL | concentration at 2 h ([2]; rat, CSF, po, 10 mg/kg, PO, 2.0 h, individual animals, read-out: CSF Concentration): 4.6 ng/mL | concentration at 2 h ([2]; rat, CSF, po, 10 mg/kg, PO, 2.0 h, mean (N=1), read-out: CSF Concentration, Mean): 4.6 ng/mL | AUCINF/Dose ([3]; IV): 2950 | CL or CL/F ([3]; IV): 4.8 mL/min/kg | HL ([3]; IV): 1.9 h | AUCINF/Dose ([3]; PO): 43 | HL ([3]; PO): 14 h | AUC(0-inf) ([3]; rat, in vivo, 1 mg/kg, IV): 2950 ng·h/mL | AUC(0-t) ([3]; rat, in vivo, 1 mg/kg, IV): 2950 ng·h/mL | Cmax ([3]; rat, in vivo, 1 mg/kg, IV): 3980 ng/mL | AUC(0-inf) ([3]; rat, in vivo, 10 mg/kg, PO): 431 ng·h/mL | AUC(0-t) ([3]; rat, in vivo, 10 mg/kg, PO): 267 ng·h/mL | Cmax ([3]; rat, in vivo, 10 mg/kg, PO): 29 ng/mL | Tmax ([3]; rat, in vivo, 10 mg/kg, PO): 2 h | bioavailability ([3]; rat, in vivo, 10 mg/kg, PO): 1.25% | CL/F ([3]; rat, in vivo, 10 mg/kg, PO, read-out: CL or CL/F): 387 mL/min/kg
Structure (SMILES): O=C(O)c1ccc(NC(=O)[C@@H]2CCC[C@H](C(=O)Nc3ccc(C(=O)O)cc3)C2)cc1 [B1, 4,4′-(((1R,3S)-cyclohexane-1,3-dicarbonyl)bis(azanediyl))dibenzoic acid]
CSF Concentration ([2]; IV, 0.00 h, individual animals): BQL (below the quantifiable limit of 2.0 ng/mL) | CSF Concentration ([2]; IV, 12 h, individual animals): BQL (below the quantifiable limit of 2.0 ng/mL) | CSF Concentration ([2]; PO, 0.00 h, individual animals): BQL (below the quantifiable limit of 2.0 ng/mL) | CSF Concentration ([2]; PO, 0.5 h, individual animals): BQL (below the quantifiable limit of 2.0 ng/mL) | CSF Concentration ([2]; PO, 1.0 h, individual animals): BQL (below the quantifiable limit of 2.0 ng/mL) | CSF Concentration ([2]; PO, 2.0 h, individual animals): BQL (below the quantifiable limit of 2.0 ng/mL) | CSF Concentration ([2]; PO, 4.0 h, individual animals): BQL (below the quantifiable limit of 2.0 ng/mL) | CSF Concentration ([2]; PO, 8.0 h, individual animals): BQL (below the quantifiable limit of 2.0 ng/mL) | CSF Concentration ([2]; PO, 12 h, individual animals): BQL (below the quantifiable limit of 2.0 ng/mL)

Mean Height ([1]; 0 h): 21,400 | Mean Height ([1]; 0.5 h): 20,700 | Mean Height ([1]; 1 h): 20,500 | Mean Height ([1]; 2 h): 19,800 | Mean Height ([1]; 4 h): 17,700 | % Remaining ([1]; 0 h): 100% | % Remaining ([1]; 0.5 h): 96.7% | % Remaining ([1]; 1 h): 95.8% | % Remaining ([1]; 2 h): 92.5% | % Remaining ([1]; 4 h): 82.7%
Structure (SMILES): CC(C)[C@H](N)C(=O)OCCOCn1cnc2c(=O)[nH]c(N)nc21 [Valacyclovir, reference compound]
